The inhibition is how much of the control response was suppressed. The term IC50 denotes the point on the concentration scale where inhibition reaches its midpoint.

In the first experiment the target is T1, Cholesteryl ester transfer protein (Homo sapiens) (UniProt P11597).
T1 sequence (whole entry): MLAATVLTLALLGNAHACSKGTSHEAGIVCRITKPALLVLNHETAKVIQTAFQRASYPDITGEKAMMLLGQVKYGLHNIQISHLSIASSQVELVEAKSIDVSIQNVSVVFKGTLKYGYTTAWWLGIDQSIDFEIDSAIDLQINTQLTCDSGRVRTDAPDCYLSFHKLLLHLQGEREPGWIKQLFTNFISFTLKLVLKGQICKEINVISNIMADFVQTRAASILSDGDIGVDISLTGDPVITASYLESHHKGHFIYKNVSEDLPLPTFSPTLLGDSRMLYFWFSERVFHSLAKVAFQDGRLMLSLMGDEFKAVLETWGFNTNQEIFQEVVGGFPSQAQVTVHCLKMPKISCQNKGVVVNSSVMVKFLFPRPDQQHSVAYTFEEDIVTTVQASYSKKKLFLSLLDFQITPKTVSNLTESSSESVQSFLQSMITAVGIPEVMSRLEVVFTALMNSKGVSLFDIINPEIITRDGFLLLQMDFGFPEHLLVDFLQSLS
As to the kind of experiment: Inhibition of human plasma derived CETP relative to control. To be noted: concentration not given here. Set-up: concentration or dose not given beside the values.
`OC(CN1c2cccc(-c3cccc(OC(F)(F)F)c3)c2CCC1C1CCCCC1)C(F)(F)F` (single isomer, unassigned; form 2) yielded an inhibition of 13%.

With `N#Cc1cccc(-c2cccc3c2CCC(c2cccc(OC(F)(F)C(F)F)c2)N3CC(O)C(F)(F)F)c1` (single isomer, unassigned; diastereomer 2), the inhibition stood at 21%.

Take `OC(CN1c2cccc(-c3cccc(OC(F)(F)F)c3)c2CCC1c1cccc(C(F)(F)F)c1)C(F)(F)F` (single isomer, unassigned; diastereomer 2): the inhibition worked out at 37%.

`OC(CN1c2cccc(-c3cccc(OC(F)(F)F)c3)c2CCC1c1ccccc1)C(F)(F)F` (single isomer, unassigned; diastereomer 2) showed an inhibition of 6%.

For the compound `OC(CN1c2cccc(-c3cccc(OC(F)(F)F)c3)c2CCC1c1cccs1)C(F)(F)F` (single isomer, unassigned; diastereomer 1), the inhibition amounted to 28%.

As for `CCC1CCc2c(-c3cccc(OC(F)(F)F)c3)cccc2N1CC(O)C(F)(F)F` (single isomer, unassigned; diastereomer 2), the inhibition is 12%.

Consider `CC(C)C(O)CN1c2cccc(-c3cccc(OC(F)(F)F)c3)c2CCC1c1cccc(OC(F)(F)F)c1` (single isomer, unassigned; form 1), for which the inhibition was 79%.

On to `OC(CN1c2cccc(-c3cccc(OC(F)(F)F)c3)c2CCC1c1cccc(OC(F)(F)C(F)F)c1)C(F)(F)F` (single isomer, unassigned; 20) [listing 1 of 2 here], for which the inhibition amounted to 86%.

Regarding `O[C@H](CN1c2cccc(-c3cccc(OC(F)(F)F)c3)c2CC[C@H]1c1cccc(OC(F)(F)F)c1)C(F)(F)F`, the inhibition is 46%.

`OC(CN1c2cccc(-c3cccc(OC(F)(F)F)c3)c2CCC1C1CCCCC1)C(F)(F)F` (single isomer, unassigned; diastereomer 1) displayed an inhibition of 11%.

In turn, `OC(CN1c2cccc(-c3cccc(OC(F)(F)F)c3)c2CCC1c1ccc(OC(F)(F)C(F)F)cc1)C(F)(F)F` (single isomer, unassigned; diastereomer 1) returned an inhibition of 5%.

Consider `O[C@@H](CN1c2cccc(-c3cccc(OC(F)(F)F)c3)c2CC[C@H]1c1cccc(OC(F)(F)F)c1)C(F)(F)F`, for which the inhibition was found to be 20%.

Compound `OC(CN1c2cccc(-c3cccc(OC(F)(F)F)c3)c2CCC1c1cccc(C(F)(F)F)c1)C(F)(F)F` (stereo in doubt; 48) [listing 1 of 2 here] yielded an inhibition of 50%.

Regarding `OC(CN1c2cccc(-c3cccc(OC(F)(F)F)c3)c2CCC1C1CCCCC1)C(F)(F)F` (single isomer, unassigned; form 1), the inhibition is 2%.

Turning to `OC(CCl)CN1c2cccc(-c3cccc(OC(F)(F)F)c3)c2CCC1c1cccc(OC(F)(F)F)c1` (single isomer, unassigned; diastereomer 2), the inhibition came out at 0%.

`OC(CF)CN1c2cccc(-c3cccc(OC(F)(F)F)c3)c2CCC1c1cccc(OC(F)(F)F)c1` (single isomer, unassigned; diastereomer 2): the inhibition was found to be 13%.

With `CC(C)C(O)CN1c2cccc(-c3cccc(OC(F)(F)F)c3)c2CCC1c1cccc(OC(F)(F)F)c1` (single isomer, unassigned; form 2), the inhibition turned out to be 0%.

The compound `OC(CCl)CN1c2cccc(-c3cccc(OC(F)(F)F)c3)c2CCC1c1cccc(OC(F)(F)F)c1` (single isomer, unassigned; diastereomer 1) had an inhibition of 56%.

As for `OC(CN1c2cccc(-c3cccc(Cl)c3)c2CCC1c1cccc(OC(F)(F)C(F)F)c1)C(F)(F)F` (single isomer, unassigned; diastereomer 1), the inhibition was determined as 67%.

Compound `CCc1cc(Oc2cccc3c2CCC(c2cccc(OC(F)(F)C(F)F)c2)N3CC(O)C(F)(F)F)ccc1Cl` (single isomer, unassigned; diastereomer 2) gave an inhibition of 86%.

Turning to `COc1cccc(-c2cccc3c2CCC(c2cccc(OC(F)(F)C(F)F)c2)N3CC(O)C(F)(F)F)c1` (single isomer, unassigned; diastereomer 2), the inhibition was found to be 38%.

`OC(CN1c2cccc(-c3cccc(OC(F)(F)F)c3)c2CCC1c1cccc(OC(F)(F)C(F)F)c1)C(F)(F)F` (single isomer, unassigned; 39) came in with an inhibition of 0%.

The compound `OC(CN1c2cccc(-c3cccc(OC(F)(F)F)c3)c2CCC1c1cccc(OC(F)(F)C(F)F)c1)C(F)(F)F` (single isomer, unassigned; 38) displayed an inhibition of 9%.

The compound `OC(CN1c2cccc(-c3cccc(Cl)c3Cl)c2CCC1c1cccc(OC(F)(F)C(F)F)c1)C(F)(F)F` (stereo in doubt; 17) displayed an inhibition of 67%.

In turn, `CCC1CCc2c(-c3cccc(OC(F)(F)F)c3)cccc2N1CC(O)C(F)(F)F` (single isomer, unassigned; diastereomer 1) had an inhibition of 44%.

`OC(CN1c2cccc(-c3cccc(C(F)(F)F)c3)c2CCC1c1cccc(OC(F)(F)C(F)F)c1)C(F)(F)F` (single isomer, unassigned; diastereomer 1) came in with an inhibition of 93%.

For `OC(CF)CN1c2cccc(-c3cccc(OC(F)(F)F)c3)c2CCC1c1cccc(OC(F)(F)F)c1` (single isomer, unassigned; diastereomer 1), the inhibition came to 70%.

For the compound `OC(CN1c2cccc(-c3cccc(OC(F)(F)F)c3)c2CCC1c1cccc(OC(F)(F)F)c1)C(F)(F)F` (stereo in doubt; 52) [listing 1 of 2 here], the inhibition worked out at 68%.

Compound `OC(CN1c2cccc(-c3cccc(OC(F)(F)F)c3)c2CCC1c1cccs1)C(F)(F)F` (single isomer, unassigned; diastereomer 2) displayed an inhibition of 12%.

The compound `OC(CN1c2cccc(-c3cccc(C(F)(F)F)c3)c2CCC1c1cccc(OC(F)(F)C(F)F)c1)C(F)(F)F` (single isomer, unassigned; diastereomer 2) returned an inhibition of 37%.

`COc1cccc(-c2cccc3c2CCC(c2cccc(OC(F)(F)C(F)F)c2)N3CC(O)C(F)(F)F)c1` (single isomer, unassigned; diastereomer 1) [listing 1 of 2 here] had an inhibition of 68%.

Regarding `OC(CN1c2cccc(-c3cccc(Cl)c3)c2CCC1c1cccc(OC(F)(F)C(F)F)c1)C(F)(F)F` (single isomer, unassigned; diastereomer 2), the inhibition is 55%.

As to `OC(CN1c2cccc(-c3cccc(F)c3)c2CCC1c1cccc(OC(F)(F)C(F)F)c1)C(F)(F)F` (single isomer, unassigned; diastereomer 2), the inhibition came out at 52%.

`CC(C)C(O)CN1c2cccc(-c3cccc(OC(F)(F)F)c3)c2CCC1c1cccc(OC(F)(F)F)c1` (single isomer, unassigned; diastereomer 2) had an inhibition of 22%.

Take `OC(CN1c2cccc(-c3cccc(Cl)c3Cl)c2CCC1c1cccc(OC(F)(F)C(F)F)c1)C(F)(F)F` (single isomer, unassigned; diastereomer 2): the inhibition was 86%.

In the case of `CCc1cc(Oc2cccc3c2CCC(c2cccc(OC(F)(F)C(F)F)c2)N3CC(O)C(F)(F)F)ccc1Cl` (single isomer, unassigned; diastereomer 1), the inhibition worked out at 62%.

Compound `OC(CN1c2cccc(-c3cccc(F)c3)c2CCC1c1cccc(OC(F)(F)C(F)F)c1)C(F)(F)F` (single isomer, unassigned; diastereomer 1) [listing 1 of 2 here] yielded an inhibition of 93%.

Consider `N#Cc1cccc(-c2cccc3c2CCC(c2cccc(OC(F)(F)C(F)F)c2)N3CC(O)C(F)(F)F)c1` (single isomer, unassigned; diastereomer 1) [listing 1 of 2 here], for which the inhibition stood at 85%.

`OC(CN1c2cccc(-c3cccc(OC(F)(F)F)c3)c2CCC1c1ccc(OC(F)(F)C(F)F)cc1)C(F)(F)F` (stereo in doubt; 41) showed an inhibition of 14%.

In turn, `OC(CN1c2cccc(-c3cccc(OC(F)(F)F)c3)c2CCC1c1cccc(OC(F)(F)C(F)F)c1)C(F)(F)F` (single isomer, unassigned; 19) yielded an inhibition of 100%.

The compound `COCC(O)CN1c2cccc(-c3cccc(OC(F)(F)F)c3)c2CCC1c1cccc(OC(F)(F)F)c1` (single isomer, unassigned; diastereomer 1) showed an inhibition of 13%.

In turn, `OC(CN1c2cccc(-c3cccc(OC(F)(F)F)c3)c2CCC1c1ccccc1)C(F)(F)F` (single isomer, unassigned; diastereomer 1) gave an inhibition of 21%.

For `OC(CN1c2cccc(-c3cccc(OC(F)(F)F)c3)c2CCC1c1cccc(OC(F)(F)F)c1)C(F)(F)F` (stereo in doubt; 53), the inhibition is 34%.

A further experiment addresses T2, Cholesteryl ester transfer protein (Homo sapiens, UniProt P11597).
T2 sequence (P11597 whole entry): T1 sequence (whole entry)
As to the kind of experiment: Inhibition of human plasma derived CETP. Type of experiment: cell-free.
Settings: not given
`OC(CN1c2cccc(-c3cccc(F)c3)c2CCC1c1cccc(OC(F)(F)C(F)F)c1)C(F)(F)F` (single isomer, unassigned; diastereomer 1) [listing 2 of 2 here]: the IC50 came to 117 nM.

`OC(CN1c2cccc(-c3cccc(OC(F)(F)F)c3)c2CCC1c1cccc(OC(F)(F)F)c1)C(F)(F)F` (stereo in doubt; 52) [listing 2 of 2 here] showed an IC50 of 125 nM.

Regarding `OC(CN1c2cccc(-c3cccc(OC(F)(F)F)c3)c2CCC1c1cccc(OC(F)(F)C(F)F)c1)C(F)(F)F` (single isomer, unassigned; 20) [listing 2 of 2 here], inhibition was half-maximal at 300 nM (IC50).

Regarding `COc1cccc(-c2cccc3c2CCC(c2cccc(OC(F)(F)C(F)F)c2)N3CC(O)C(F)(F)F)c1` (single isomer, unassigned; diastereomer 1) [listing 2 of 2 here], half-maximal inhibition (IC50) was put at 126 nM.

For the compound `N#Cc1cccc(-c2cccc3c2CCC(c2cccc(OC(F)(F)C(F)F)c2)N3CC(O)C(F)(F)F)c1` (single isomer, unassigned; diastereomer 1) [listing 2 of 2 here], the IC50 came out at 235 nM.

The compound `OC(CN1c2cccc(-c3cccc(OC(F)(F)F)c3)c2CCC1c1cccc(C(F)(F)F)c1)C(F)(F)F` (stereo in doubt; 48) [listing 2 of 2 here] showed an IC50 of 143 nM.

Source of the values: ChEMBL document CHEMBL1138445, “Design and synthesis of potent inhibitors of cholesteryl ester transfer protein (CETP) exploiting a 1,2,3,4-tetrahydroquinoline platform” (Bioorg Med Chem Lett, 2009).
